From patent publication US7083983B2, “Inhibitors of the interaction between P53 and MDM2” (Cancer Research Campaign Technology Limited, priority 1996, dated 2006)
Where no end group is shown, it is not given here.

Columns and labels:
[1] = tested on: GST-hdm2, MBP-hdm2 or TRX-hdm2; test: solution phase phage ELISA with hdm2 fusion proteins; format: binding, human; settings: phages preincubated in solution with GST-hdm2, MBP-hdm2 or TRX-hdm2
Procedure: GST-, MBP-, TRX-hdm2 or baculovirus produced mdm2 (Sf9 cell extract) diluted in PBST-M are reacted in solution with hdm2- or GST-binding phage overnight at 4° C. Simultaneously, ELISA plates are coated with 100 μl Rabbit anti-mouse antibodies (DAKO, Z0259) 1:1000 in 0.1 M NaHCO3, pH 9.6. The plates are blocked as usual and incubated with monoclonal anti-mdm2 antibodies (hybridoma supernatant 1:5 diluted in PBST-M) for one hour. For the titration ELISA, purified SMP14 (8 μg/ml in PBS) is used to coat the plate directly. In either case, the pre-incubated phage-hdm2 samples are transfered to the coated and blocked plate and incubated for two hours at room temperature. Bound phages are detected as described.
For these experiment clones BB2/BB11 (GST binding control phage) and BB3/BB10 (hdm2 phage) are chosen. Phages are preincubated in solution with GST-hdm2, MBP-hdm2 or TRX-hdm2 and the phage-hdm2 complexes are transfered to wells which contain different monoclonal anti-mdm2 antibodies bound to the solid phase via anti-mouse antibodies. Bound phages are detected. […] All three anti-mdm2 antibodies used (SMP 14, 4B2, 3G5) are able to bind to hdm2 complexed with GST-phage. Antibody SMP14 is commercially available and described in Picksley et al., Oncogene 9, 2523–2529 (1994) incorporated by reference above. […] Phage-hdm2 complexes are pulled down by solid phase SMP14 and bound phages are detected. […]

[2] = tested on: U2-OS cells, pRGCΔFosLacZ reporter; test: transient transfection, p53 reporter induction in U2-OS cells; format: cell-based; settings: transfected plasmid DNA, 48 hours after transfection
Procedure: (§1) The OSA cell line contains a highly elevated mdm2 level due to gene amplification (Florence et al., 1994). The U2-OS cell line has no gene amplification for mdm2 but has elevated levels of dmd2-mRNA (Florence et al. 1994). The MCF-7 cell line contains heterogenously expressed low levels of wild type p53 and no reported mdm2 elevation.
(§2) For transient transfection and reporter induction, cells are seeded into 6 well plates at 1.5×10^6 cell per well. They are grown to a density of 80% confluence and transfected using different Lipophilic reagents such Lipofectin and Lipofectamin from Promega or Dosper and Dotap from Boehringer. […] Two to four hours after transfection, complete medium is added. Forty-eight hours after transfection β-galactosidase activity is measured using […] (Boehringer) as a substrate. Cells are scraped into PBS and centrifuged. Pellets from each well are dissolved in 50 μl of Reporter Lysis buffer (Promega) and incubated on ice for 15 minutes. Soluble Lysates are incubated with CPRG in 100 mM phosphate buffer, pH 7.0. Optical Density at 595 nm is measured 1 to 24 hours later.

[3] = tested on: OSA cells, pRGCΔFosLacZ reporter; test: transient transfection, p53 reporter induction in OSA cells; format: cell-based, human; settings: highly elevated mdm2, transfected plasmid DNA, 48 hours after transfection
Procedure: as §1, §2

[4] = tested on: MCF-7 cells, pRGCΔFosLacZ reporter; test: transient transfection, p53 reporter induction in MCF-7 cells; format: cell-based; settings: transfected plasmid DNA, 48 hours after transfection
Procedure: as §1, §2

[5] = tested on: T22 cells stably transfected with pRGC ΔFosLacz, a p53 responsive β-galactosidase reporter; test: p53 responsive β-galactosidase reporter after microinjection into T22 cells; format: cell-based, mouse; settings: low level p53 and mdm2, 24 hours
Description: (§3) Antibodies or DNA encoding the described binding elements may be microinjected into Vrn.6 cells, a transformed rat thyroid epithelial cell line and T22 cells, a mouse prostrate derived cell line both cell lines being stably transfected with pRGC ΔFosLacz, a p53 responsive β-galactosidase reporter. […] Vrn.6 tolerate high levels of wild type p53 and overexpress MDM2 at a protein level. T22 cells typically contain low levels of p53 and mdm2.
(§4) For microinjection, cells may be seeded into tissue culture dishes and grown to 60–70% confluence. Microinjection may be performed using an Eppendorfer microinjection system (Microinjector 5242, Micromanipulator 5170) mounted to an Axiovert light microscope (Zeiss) having a heated stage.
(§5) Purified mouse monoclonal antibodies 3G5 and 4B2 may be injected intranuclearly and cytoplasmicly in PBS at a concentration of 1.3 mg/ml. Plasmid DNA encoding for TIP 12/1, TIP wt and Trx may be injected intronuclearly in water at a concentration of 0.25 mg 7 ml. Following microinjection, fresh medium may be added to the cell cultures and the cultures further incubated for 24 hours.
(§6) To detect β-galactosidase activity, cells may be washed with PBS and fixed with 2% formaldehyde, /0.2% glutaraldehyde in PBS for 5 minutes on ice. […]

[6] = tested on: Vrn.6 cells stably transfected with pRGC ΔFosLacz, a p53 responsive β-galactosidase reporter; test: p53 responsive β-galactosidase reporter after microinjection into Vrn.6 cells; format: cell-based, rat; settings: Vrn.6 cells having overexpressed MDM2; injected intranuclearly; 24 hours
Description: as §3, §4, §5, §6

Sequence of GST-hdm2, MBP-hdm2 or TRX-hdm2 (Q00987 1-188 limits assumed): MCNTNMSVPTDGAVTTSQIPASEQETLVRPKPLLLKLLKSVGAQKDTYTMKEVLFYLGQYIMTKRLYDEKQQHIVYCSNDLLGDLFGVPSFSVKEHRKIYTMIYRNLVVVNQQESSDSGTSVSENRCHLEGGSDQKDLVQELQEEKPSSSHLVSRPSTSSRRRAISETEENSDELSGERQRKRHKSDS

Row | Substance | binding of phage to hdm2 fusion proteins [1] | induction of the p53 reporter (β-galactosidase activity) [2] | induction of the p53 reporter (β-galactosidase activity) [3] | induction of the p53 reporter (β-galactosidase activity) [4] | β-galactosidase response (blue stained cells) of p53 reporter [5] | β-galactosidase response (blue stained cells) of p53 reporter [6]
1 | PAFSRFWSADLSAGAH [BB3] | recognizes all three hdm2 fusion proteins |  |  |  |  | 
2 | TIP 12/1: binding element: E. coli thioredoxin presenting the peptide insert of clone 12/1 in its active site, delivered as encoding plasmid DNA (MPRFMDYWEGLN; not fully specified; printed as M-P-R-F-M-D-Y-W-E-G-L-N) |  | most induction | Lower induction | most induction | strong positive response | 
3 | Trx: negative control binding element comprising thioredoxin without a peptide insert [reference compound] |  |  |  |  | No response | not a positive response
